Experimental data taken from the supplement of paper PMC11061612.

How the values were obtained:
[1] = system: HCC-44 (Lung Adenocarcinoma); test: Bliss excess, mean over the matrix (fraction); higher = more synergy
Summary of the method: (§1)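 Bliss excess equals the observed combination effect minus the expected value EA + EB − EA·EB, where EA and EB are the effects of each agent alone. Combination Emax is the second-highest inhibition within the matrix. Inhibition was scaled from CellTiter-Glo 2.0 luminescence, with 0 set by vehicle wells and 1 by blank wells, after 72 hours of two-drug dosing of cells plated in 1536-well plates.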

[2] = system: KYSE-70 (Esophageal Squamous Cell Carcinoma); test: as above
Summary of the method: as §1

[3] = system: NCI-H1755 (Lung Adenocarcinoma); test: as above
Summary of the method: as §1

CHL-1 (Melanoma) = test: as above
Summary of the method: as §1

[4] = system: RERF-LC-KJ (Lung Adenocarcinoma); test: as above
Summary of the method: as §1

[5] = system: HCC-44 (Lung Adenocarcinoma); test: combination Emax (second highest fraction inhibited in the dose matrix, 72 h); higher = more inhibition; extreme values may be limits of the assay
Summary of the method: as §1

Row | SMILES | Bliss excess [1] | Bliss excess [2] | Bliss excess [3] | Bliss excess (CHL-1 (Melanoma)) | Bliss excess [4] | combination Emax [5]
1 | CS(=O)(=O)CCNCc1ccc(-c2ccc3ncnc(Nc4ccc(OCc5cccc(F)c5)c(Cl)c4)c3c2)o1 [Lapatinib] + C[C@@H](Oc1cc(-c2cnn(C3CCNCC3)c2)cnc1N)c1c(Cl)ccc(F)c1Cl [Crizotinib] (first compound max 10 µM, 7x7, partner max 10 µM) | -0.0384 | -0.0359 | -0.0468 | -0.0393 | 0.074 | 0.939
2 | COc1nnc2ccc(N3CCC(c4ccc(OCCN5CCN(C)C(=O)[C@H]5C)cc4)CC3)nn12 [AZD5153] + CCN(CCO)CCCOc1ccc2c(Nc3cc(CC(=O)Nc4cccc(F)c4)[nH]n3)ncnc2c1 [AZD2811] (first compound max 1 µM, 7x7, partner max 1 µM) | -0.0338 | -0.0265 | -0.0058 | 0.0413 | -0.075 | 0.617
3 | Cn1cnc2c(F)c(Nc3ccc(Br)cc3Cl)c(C(=O)NOCCO)cc21 [Selumetinib] + C[C@@H]1COCCN1C2=NC(=NC(=C2)C3(CC3)[S@](=N)(=O)C)C4=C5C=CNC5=NC=C4 [AZD6738] (first compound max 10 µM, 7x7, partner max 10 µM) | -0.034 | -0.0408 | 0.012 | -0.0498 | 0.0075 | 0.503
4 | C=CCn1c(=O)c2cnc(Nc3ccc(N4CCN(C)CC4)cc3)nc2n1-c1cccc(C(C)(C)O)n1 [AZD1775] + C1CN(CCC1(C(=O)N[C@@H](CCO)C2=CC=C(C=C2)Cl)N)C3=NC=NC4=C3C=CN4 [Capivasertib] (first compound max 3 µM, partner max 3 µM) | -0.0109 | -0.0193 | -0.0691 | 0.0106 | -0.0117 | 0.844
5 | C[C@@H](c1ccc2nccn2c1)n1nnc2ncc(-c3cnn(C)c3)nc21 [Savolitinib] + CC1(C)CCC(CN2CCN(c3ccc(C(=O)NS(=O)(=O)c4ccc(NCC5CCOCC5)c([N+](=O)[O-])c4)c(Oc4cnc5[nH]ccc5c4)c3)CC2)=C(c2ccc(Cl)cc2)C1 [Venetoclax] (first compound max 1 µM, 7x7, partner max 1 µM) | -0.02 | -0.0504 | -0.05 | -0.0511 | -0.077 | 0.148
